Experimental data published in paper PMC8620390, “New Multi-Targeted Antiproliferative Agents: Design and Synthesis of IC261-Based Oxindoles as Potential Tubulin, CK1 and EGFR Inhibitors” (Pharmaceuticals, 2021).
Several values for one entry are separate records, joined by “and”; a condition that tells them apart may be missing. Equal values may be shown once. Marks after values point to notes of the source that are not given here.

Legend:
A549 cell line = assay: MTT assay for A549 cell line; assay type: cell-based
Protocol: MTT assay for A549 cell line. Cell Line cells were obtained from American Type Culture Collection. Cells were cultured using DMEM (Invitrogen/Life Technologies, Carlsbad, CA, USA) supplemented with 10% FBS (Hyclone, Logan, UT, USA), 10 μg/mL of insulin (Sigma, St. Louis, MI, USA), and 1% penicillin-streptomycin. All the other chemicals and reagents were from Sigma (St. Louis, MI, USA) or Invitrogen (Carlsbad, CA, USA). Cells were plated (cells density 1.2–1.8 × 10,000 cells/well) in a volume of 100 µL complete growth medium + 100 μL of the tested compound per well in a 96-well plate for 24 h before the application of MTT assay protocol as reported, Supplementary Materials.
Cell Line cells were obtained from American Type Culture Collection , cells were cultured using DMEM (Invitrogen/Life Technologies) supplemented with 10% FBS (Hyclone,), 10 ug/ml of insulin (Sigma), and 1% penicillin-streptomycin. All of the other chemicals and reagents were from Sigma, or Invitrogen.
Plate cells (cells density 1.2 – 1.8 × 10,000 cells/well) in a volume of 100µl complete growth medium + 100 ul of the tested compound per well in a 96-well plate for 24 hours before the MTT assay .
1. Remove culture medium to a centrifuge tube.
2. Briefly rinse the cell layer with 0.25% (w/v) Trypsin 0.53 mM EDTA solution to remove all traces of serum which contains Trypsin inhibitor.
3. Add 2.0 to 3.0 ml of Trypsin EDTA solution to flask and observe cells under an inverted microscope until cell layer is dispersed (usually within 5 to 15 minutes). […]
waiting for the cells to detach. Cells that are difficult to detach may be placed at 37°C […]
4. Add 6.0 to 8.0 mL of complete growth medium and aspirate cells by gently
5. […]
6. Spectrophotometrically measure absorbance at a wavelength of 570 nm. Measure the background absorbance of multiwell plates at 690 nm and subtract from the […] measurement. Tests performed in multiwell plates can be read using the appropriate type of plate reader or the contents of individual wells may be transferred to appropriate size cuvets for spectrophotometric measurement.

Bax = Bax expression level in COLO-205 (qRT-PCR); assay type: cell-based, human; details: COLO-205, 4b 2.34 μM, vs DMSO-treated control
Protocol: (§1) qRT-PCR was used to assess the […] expression of Bax and Bcl-2. The High Pure RNA Isolation Kit (RNeasy extraction kit, up to 1 × 10^7 cells) was used to isolate total RNA from COLO-205 cells according to the manufacturer's instructions. A Transcriptor First Strand c-DNA Synthesis Kit was used to produce c-DNA from RNA according to the manufacturer's instructions; 10 μL total RNA was used for amplification Specific primers for Bax, Bcl-2, and P53 were used in PCR experiments. A LightCycler 480 PCR Master Mix was used to set up amplification reactions with a reaction volume of 20 uL. TaqMan probes and PCR primers were created and tuned. PCR Primer sequences were as following (Bax [NT], Bax [NT]. Bcl-2 [NT], and Bcl-2 […] dissociation assay was performed to evaluate any problem related to primer unspecific annealing or any secondary structure formation. Data were analyzed using SDS analysis software.

Bcl-2 = Bcl-2 expression level in COLO-205 (qRT-PCR); assay type: cell-based, human
Protocol: as §1

COLO-205 [1] = assay: Cell cycle analysis, DNA flow cytometry (PI); assay type: cell-based, human
Protocol: COLO-205 Cells were placed in a 6-well plate at 1 × 10^5 concentration of cells/well then incubated for 24 h. COLO-205 Cells were treated with compound 4b (2.34 μM) for 24 h. Cells were then collected and fixed for 12 h using ice cold 70% ethanol at 4 °C. Ethanol was then removed and cells were washed with cold phosphate buffer saline (PBS, 0.5 mL) and incubated for 30 min at 37 °C. The cells were stained for 30 min with propidium iodide in the dark. A flow cytometer was used to detect DNA content.

COLO-205 [2] = assay: Annexin V-FITC/PI apoptosis assay; assay type: cell-based, human
Protocol: COLO-205 Cells were placed in a 6-well plate at 1 × 10^5 concentration of cells/well then incubated for 24 h. COLO-205 Cells were treated with compound 4b (2.34 μM) for 24 h. The cells were then harvested, washed with PBS and stained with Annexin V-FITC and PI in binding buffer ([…] at pH 7.4) for 15 min at room temperature in the dark then analyzed by the flow cytometer.

Pgp = Pgp ELISA assay in MCF-7 cells; assay type: in vitro ADME, human
Protocol: PgP concentration was measured using ELISA kit Cat No: MBS722065) for human PgP assay. The Pgp ELISA kit employs a competitive enzyme immunoassay technique using a polyclonal anti-Pgp antibody and a PgpHRP conjugate. The test sample and buffer were incubated together with the PgpHRP conjugate on a precoated plate for one hour. After the incubation period, the wells were decanted and washed five times. The wells were then incubated with a substrate for the HRP enzyme. The enzyme-substrate reaction product formed a blue complex. Finally, a stop solution was added to stop the reaction, which then turned the solution yellow. Color intensity was measured spectrophotometrically at 450 nm in a microplate reader. The intensity of the color was inversely proportional to the Pgp concentration, since the Pgp of the samples and the PgpHRP conjugate competed for the binding site of the anti-Pgp antibody. Because the number of sites is limited, there were fewer sites left to bind to the PgpHRP conjugate as the sample Pgp occupies more sites. A standard curve was drawn that relates the intensity of the color to the concentration of the standards. The Pgp concentration in each sample was interpolated from this standard curve.

[3] = COLO-205, 4b 2.34 μM, 24 h, annexin V-FITC

Row | Structure (SMILES) | IC50 (A549 cell line; Homo sapiens, A549) | IC50 (A549 cell line; listed as 4a (IC261)) | Bax expression level, fold change (Bax) | Bcl-2 level, fold change (Bcl-2; COLO-205, 4b 2.34 μM, vs control) | Bcl-2 protein level down-regulation, fold lower than untreated cells (Bcl-2; COLO-205, vs untreated COLO cells) | DNA content %G0-G1 (COLO-205 [1]; COLO-205, 4b 2.34 μM, 24 h) | DNA content %G2/M (COLO-205 [1]; COLO-205, 4b 2.34 μM, 24 h) | DNA content %Pre-G1 (COLO-205 [1]; COLO-205, 4b 2.34 μM, 24 h) | DNA content %S (COLO-205 [1]; COLO-205, 4b 2.34 μM, 24 h) | increase in cells at pre-G1 phase, fold (COLO-205 [1]; COLO-205, vs untreated control) | Apoptosis Early (COLO-205 [2]; [3]) | Apoptosis Late (COLO-205 [2]; [3]) | Apoptosis Total (COLO-205 [2]; [3]) | Necrosis (COLO-205 [2]; COLO-205, 4b 2.34 μM, 24 h, annexin V-FITC/PI) | overall effect (cytotoxic vs cytostatic) (COLO-205 [2]; COLO-205, annexin V/PI) | early and late apoptosis, times compared to the control (COLO-205 [2]; COLO-205, vs DMSO control) | necrosis, times compared to the control (COLO-205 [2]; COLO-205, vs DMSO control) | Pgp occupied by compound (Pgp)
1 | COc1cc(OC)c(/C=C2/C(=O)Nc3ccccc32)c(OC)c1 [Compound 4a, (E)-3-(2,4,6-trimethoxybenzylidene)indolin-2-one, reference compound] | 28 µM | 28.4 µM | – | – | – | – | – | – | – | – | – | – | – | – | – | – | – | –
2 | COc1cc(OC)c(/C=C2/C(=O)Nc3cc(Cl)ccc32)c(OC)c1 [Compound 4b, (E)-6-chloro-3-(2,4,6-trimethoxybenzylidene)indolin-2-one] | 9.5 µM | – | 5.104 fold and 5.10 fold | 0.242 fold and 0.24 fold | 4.16 fold | 47.15% | 2.94 * % | 41.28% and 41.28 * % | 49.91% | 16.99 fold | 2.61% | 21.31% | 41.28% | 17.36% | cytotoxic, rather than cytostatic | 27.81 times | 11.05 times | around 35%
